# Test results reported in ChEMBL document CHEMBL1135191, “Novel cyclourethane-derived HIV protease inhibitors: a ring-closing olefin metathesis based strategy” (Bioorg Med Chem Lett, 2002).
# Tested on: Human immunodeficiency virus 1
# Assay: Compound was tested for its antiviral potency against human immunodeficiency virus type 1
# Assay type: functional
# Settings: read-out: ID50 (the source's name)
row,IC50,SMILES
1,1.4 nM,COc1ccc(S(=O)(=O)N(CC(C)C)CC(O)C(Cc2ccccc2)NC(=O)O[C@H]2CO[C@H]3OCC[C@H]32)cc1 (some centres not stated)
2,50 nM,CC(C)(C)NC(=O)[C@@H]1C[C@@H]2CCCC[C@@H]2CN1CC(O)C(Cc1ccccc1)NC(=O)O[C@H]1CO[C@H]2OCC[C@H]21 (some centres not stated)

# Molecular target: Human immunodeficiency virus type 1 protease (Human immunodeficiency virus 1, UniProt Q72874)
# Assay: Compound was tested for its inhibitory potency against human immunodeficiency virus -1 (HIV-1 protease)
# Settings: not given
row,Ki,SMILES
1,80 nM,O=C(NC(Cc1ccccc1)C(O)CN1CCCCCCCCCCCOC1=O)O[C@H]1CO[C@H]2OCC[C@H]21 (some centres not stated)
2,125 nM,O=C(NC(Cc1ccccc1)C(O)CN1C/C=C\CCCCCCCCOC1=O)O[C@H]1CO[C@H]2OCC[C@H]21 (some centres not stated)
3,162 nM,O=C(NC(Cc1ccccc1)C(O)CN1CCCC/C=C/CCCCCCC(c2ccccc2)OC1=O)O[C@H]1CO[C@H]2OCC[C@H]21 (some centres not stated)
4,53 nM,CC1C/C=C\CCCCCCCCCOC(=O)N1CC(O)C(Cc1ccccc1)NC(=O)O[C@H]1CO[C@H]2OCC[C@H]21 (some centres not stated)
5,167 nM,O=C(NC(Cc1ccccc1)C(O)CN1CCCCCCCCC/C=C/CC(c2ccccc2)OC1=O)O[C@H]1CO[C@H]2OCC[C@H]21 (some centres not stated)
6,14 nM,O=C(NC(Cc1ccccc1)C(O)CN1CCCCCCCCCCCCOC1=O)O[C@H]1CO[C@H]2OCC[C@H]21 (some centres not stated)
7,88 nM,O=C(NC(Cc1ccccc1)C(O)CN1CCCCCCCCC/C=C/CCOC1=O)O[C@H]1CO[C@H]2OCC[C@H]21 (some centres not stated)
8,30 nM,CC1CCCCCCCCCCCOC(=O)N1CC(O)C(Cc1ccccc1)NC(=O)O[C@H]1CO[C@H]2OCC[C@H]21 (some centres not stated)
9,11 nM,CC1C/C=C/CCCCCCCCOC(=O)N(CC(O)C(Cc2ccccc2)NC(=O)O[C@H]2CO[C@H]3OCC[C@H]32)C1 (some centres not stated)
10,6.1 nM,CC1CCCCCCCCCCOC(=O)N(CC(O)C(Cc2ccccc2)NC(=O)O[C@H]2CO[C@H]3OCC[C@H]32)C1 (some centres not stated)

# Second part, the molecule before the results:
row,SMILES,Ki
1,C=CCCCCCCCC(OC(=O)N(CC=C)CC(O)C(Cc1ccccc1)NC(=O)O[C@H]1CO[C@H]2OCC[C@H]21)c1ccccc1 (some centres not stated),> 1000 nM
2,C=CCCCCCCCCN(CC(O)C(Cc1ccccc1)NC(=O)O[C@H]1CO[C@H]2OCC[C@H]21)C(=O)OC(CC=C)c1ccccc1 (some centres not stated),> 1000 nM
3,O=C(NC(Cc1ccccc1)C(O)CN1CCCCCCCCCCCC(c2ccccc2)OC1=O)O[C@H]1CO[C@H]2OCC[C@H]21 (some centres not stated),357 nM
4,COc1ccc(S(=O)(=O)N(CC(C)C)CC(O)C(Cc2ccccc2)NC(=O)O[C@H]2CO[C@H]3OCC[C@H]32)cc1 (some centres not stated),0.015 nM
5,C=CCCCCCCCCN(CC(O)C(Cc1ccccc1)NC(=O)O[C@H]1CO[C@H]2OCC[C@H]21)C(=O)OCCC=C (some centres not stated),> 1000 nM
6,O=C(NC(Cc1ccccc1)C(O)CN1CCCCCCCCCCCCC(c2ccccc2)OC1=O)O[C@H]1CO[C@H]2OCC[C@H]21 (some centres not stated),268 nM
7,C=CCCCCCCCCOC(=O)N(CC=C)CC(O)C(Cc1ccccc1)NC(=O)O[C@H]1CO[C@H]2OCC[C@H]21 (some centres not stated),> 1000 nM
8,O=C(NC(Cc1ccccc1)C(O)CN1CCCCCCCCCCC(c2ccccc2)OC1=O)O[C@H]1CO[C@H]2OCC[C@H]21 (some centres not stated),189 nM
9,C=CCCCCCCC(OC(=O)N(CCCCC=C)CC(O)C(Cc1ccccc1)NC(=O)O[C@H]1CO[C@H]2OCC[C@H]21)c1ccccc1 (some centres not stated),444 nM
10,C=CCCCCCCCOC(=O)N(CC(C)CC=C)CC(O)C(Cc1ccccc1)NC(=O)O[C@H]1CO[C@H]2OCC[C@H]21 (some centres not stated),> 1000 nM
11,C=CCCCCCCCCOC(=O)N(CC(O)C(Cc1ccccc1)NC(=O)O[C@H]1CO[C@H]2OCC[C@H]21)C(C)CC=C (some centres not stated),> 1000 nM
12,CC(C)(C)NC(=O)[C@@H]1C[C@@H]2CCCC[C@@H]2CN1CC(O)C(Cc1ccccc1)NC(=O)O[C@H]1CO[C@H]2OCC[C@H]21 (some centres not stated),2 nM
13,O=C(NC(Cc1ccccc1)C(O)CN1C/C=C\CCCCCCCC(c2ccccc2)OC1=O)O[C@H]1CO[C@H]2OCC[C@H]21 (some centres not stated),229 nM

# Tested on: MT4
# Assay: Inhibitory activity against HIV-1 virus in MT-4 human T-lymphoid cells
# Assay type: functional
# Settings: read-out: ID50 (the source's name)
row,SMILES,IC50
1,CC1CCCCCCCCCCOC(=O)N(CC(O)C(Cc2ccccc2)NC(=O)O[C@H]2CO[C@H]3OCC[C@H]32)C1 (some centres not stated),2500 nM

# Molecular target: Human immunodeficiency virus type 1 protease (Human immunodeficiency virus 1) (UniProt Q72874)
# Settings: not given
row,ID50,SMILES
1,18 nM,CC(C)(C)NC(=O)[C@@H]1C[C@@H]2CCCC[C@@H]2CN1C[C@@H](O)[C@H](Cc1ccccc1)NC(=O)[C@H](CC(N)=O)NC(=O)c1ccc2ccccc2n1
